Data taken from patent US9427433B2, “Methods and compositions for enhancing fertility and/or inhibiting pregnancy failure and restoring glucose tolerance” (Queen's University at Kingston, priority 2011, dated 2016).

Assays:
transplant patients = settings: cited from earlier work
[1] = test system: 60% high fat fed NZO or DIO mice; assay: Body weight gain and visceral fat in high fat fed mice; assay type: in vivo, mouse
Experimental: Twenty NZO and DIO/B6 female mice were maintained on a high fat diet consisted of 60% kcal fat, 20% kcal protein and 20% kcal carbohydrate, with a total energy mass of 5.24 kcal/gm (D12492, Research Diets Inc.; […] Tacrolimus (Prograf (5 mg/ml), Astellas) was administered subcutaneously in a dose of 0.1 mg/kg q2d in 0.2 ml saline for three weeks to the obese and glucose intolerant NZO and DIO mice starting at the age of 10 weeks after which animals were mated to males of the same strain and pregnancy was dated from the morning of the positive detection of vaginal (copulation) plug. See FIG. 2. Facial (mandibular) venous blood samples were collected from treated animals at 24 and 48 hours between injections and at pregnancy days 0.5, 2.5, 4.5, 6.5, 8.5, 10.5, 12.5, 14.5, 16.5 and 18.5, respectively, following a standard procedure for facial bleed in mice (Golde et al. Lab Anim (NY) 2005 34:39-43). A lean cohort of control B6 and BALBc mice was fed with a regular 10 kcal % control chow diet containing the same protein content as the high fat diet with a total energy mass of 3.1 kcal/g (D12450Bi, Cedarlane, Ontario).

[2] = test system: NZO mice fed a high fat diet; assay: Fasting serum glucose, fasting serum insulin and glucose tolerance, comparison of macrolides; assay type: in vivo, mouse; settings: vs vehicle
Experimental: Female mice were administered tacrolimus (0.1 mg/kg or 0.05 mg/kg, n=6/group), vehicle (n=10), pimecrolimus (0.1 mg/kg, n=6) or sirolimus (0.1 mg/kg, n=6) subcutaneously every other day for 3 weeks.
For the comparative evaluation of other macrolide drugs to tacrolimus, mice starting at 7 weeks of age were maintained on the high fat diet for a total of 13 weeks of study period. Mice were entered into the experiments when determined to be glucose intolerant as described above. Methods of drug administration and other experimental methods were as described above.
Glucose Tolerance Test (GTT): was performed according to standard protocol (Ayala et al 2010). Briefly, basal glucose levels were measured for conscious mice individually caged in 1000 cc plastic mouse caging using a one-touch ultra glucose strips and meter (Acqui-check Aviva, Roche, Montreal, Canada) and approximately 30 microliters of blood obtained via tail venipuncture prior to fasting for six hours in cages equipped with hardwood bedding. Fasting blood glucose was recorded at the end of the six hours fasting period. Mice were then tested for oral glucose tolerance (OGTT) or for insulin sensitivity (Si). For OGTT alert mice were then given 20% D-glucose (2 g/kg body weight) sterile syrup administered orally. For Si experiments mice were given 20% D-glucose (2 g/kg body weight) sterile syrup by intraperitoneal administration through a 1 ml D29 gage “½” insulin syringe (Fisher Scientific, Montreal, Canada). Then after, blood glucose was recorded at 15, 30, 45, 60, 90 and 120 minutes respectively. For Si experiments blood glucose was determined only at 15 minutes. Glucose tolerance graphs were generated by blotting mean±standard error of the mean (SEM) of the recorded glucose data per mouse per minute collection time. One way analysis of variance (ANOVA) followed by student t-test was performed to determine alpha values for statistical differences among mean blood glucose values across experimental mice groups.
Fasting immuno-reactive mouse insulin levels were quantitatively determined in citrated platelet-free plasma samples obtained from 6 hours-fasting mice using an Ultrasensitive mouse Insulin Eliza kit (#90080, Crystal chem., IL, USA) according to the manufacturer instructions. Briefly, platelet-free plasma were isolated from freshly obtained citrated whole blood samples of fasting mice and the provided insulin standards were incubated overnight on a shaking platform at 4 C^0 in a 96 wells plate coated with Guinea pig anti-insulin. Afterwards, unbound sample materials were thoroughly washed with the supplied wash buffers and the bound guinea pig anti-insulin/mouse insulin complex immobilized to the microplate wells were incubated with Horseradish peroxidase (HRP)-conjugated anti-insulin antibody for 40 minutes at room temperature with continuous agitation. Excess unbound HRP-conjugated anti-insulin antibodies were then washed excessively with wash buffers and the HRP-mediated color reaction was developed with the addition of 3,3′,5,5′ tetramethylbenzidine (TMB) substrate solution. The amount of insulin (ng/ml) present in the test samples were then measured via interpolation using the standard curve generated by plotting absorbance (at A^0450-A^0635) versus the corresponding concentration of a wide range (0.1-12.8 ng/ml) of mouse insulin standards according to the provider's instructions. Graphic representation of differences in mean±sem of plasma insulin among different groups of mice were blotted using Prism5 (La Jolla, Calif., USA) software and statistically significant differences (at 95% confidence) were calculated for the different test groups of mice using one way ANOVA followed by Bonferroni modified student t-test comparing differences between individual experimental groups.

NOD mice = NOD mice at younger age, model for Type 1 diabetes; cited from earlier work
pregnant diabetic mice = assay: Fetal weight and intrauterine growth restriction (IUGR); assay type: in vivo, mouse
Description: FIGS. 14A and 14B show representative fetal weights (FIG. 14A) and percent of dams with intrauterine growth restricted (IUGR) pups (FIG. 14B) as measured on day 18.5 of pregnancy in the tacrolimus-treated diabetic mice versus vehicle-treated diabetic dams and those normoglycemic control cohorts. Whiskers in FIG. 14A represent the 10th and 90th percentiles of fetal body weight. Pups with weights below the 10th percentile of the normoglycemic control were considered intrauterine growth restricted (IUGR) as indicated by the shaded region. […] Numbers in brackets in FIG. 14A represents number of pups examined. “n” denotes number of dams. p<0.05.

IFN-γ mRNA = assay: Decidual/placental IFN-γ mRNA levels; assay type: in vivo, mouse; settings: mid- to late pregnancy; NOD mice, 1 or 0.1 mg/kg q2d for three weeks with or without 10 mg/kg loading dose
Experimental: In these studies, pregnancy progression and the glycemic control of mice treated with tacrolimus were examined. In an initial set of experiments, a loading dose of 10 mg/kg was initially administered to mice at the pre-diabetic stage followed by a maintenance dose of 1 or 0.1 mg/kg every other day (q2d) for three weeks after the last injection of which animals were allowed to mate and get pregnant. In an additional set of experiments mice were injected every other day with either 1 or 0.1 mg/kg dose for three weeks during the pre-diabetic stage and after the last injection of which mice were mated and examined for the progress of their pregnancy. Ultrasonic, vascular resistance index measurements, morphologic analyses were conducted on immunosuppressed and control NOD dams and their gestational uterine samples throughout pregnancy. Uterine, decidual and placental IFN-γ mRNA levels were also measured. Immunosuppressed NOD mice achieved and maintained normal glucose homeostasis with normal pregnancy pattern and a higher rate of viably implanted embryos and fetuses having normal phenotypic appearance. Placentae of NOD mice treated with tacrolimus were more deciduomatous, and the integrity of the stem, anchoring and branching placental villi were maintained. […]

[3] = 0.1 mg/kg s.c. every other day for 3 weeks

For `C=CC[C@@H]1/C=C(\C)C[C@H](C)C[C@H](OC)[C@H]2O[C@@](O)(C(=O)C(=O)N3CCCC[C@H]3C(=O)O[C@H](/C(C)=C/[C@@H]3CC[C@@H](O)[C@H](OC)C3)[C@H](C)[C@@H](O)CC1=O)[C@H](C)C[C@@H]2OC` [tacrolimus], the “safety of use during pregnancy” value (transplant patients) is listed as “safe drug for use during pregnancy”, the body weight gain ([1]; after the initial administration, FIG. 19B) is listed as “prevented body weight gain for seven consecutive weeks” and the “mass of the visceral fat” value ([1]; all treated mice) is listed as “significantly lower”. The “fasting basal serum glucose” value [2, 3] was “normalized fasting basal serum glucose concentrations”, the “fasting basal serum insulin” value [2, 3] was “significantly reduced fasting basal serum insulin concentrations” and the “insulin secretion in response to a hyperglycemic challenge” value ([2]; tacrolimus 0.1 or 0.05 mg/kg, pimecrolimus 0.1 mg/kg, sirolimus 0.1 mg/kg s.c. every other day for 3 weeks) was “significantly improved insulin secretion”. The “suppression of overt diabetes, share of treated NOD mice” value (NOD mice) was 84%, the “treated pregnant diabetic mice in which IUGR development was inhibited” value (pregnant diabetic mice; 0.1 mg/kg s.c. every other day, weeks 9-11 of age) was 88% and the fetal body weight (pregnant diabetic mice; day 18.5 of pregnancy, 0.1 mg/kg s.c. every other day, weeks 9-11 of age, p<0.05) was “significantly improved fetal body weight”. The “pups born to diabetic dams rescued from inflammatory-mediated growth restriction” value (pregnant diabetic mice; short term administration) was 88% and the “decidual/placental IFN-γ mRNA” value (IFN-γ mRNA) was “Lower normal levels of decidual/placental IFN-γ mRNA”.
